Test results from patent publication EP0540143B1, “Compounds and methods for inhibition of HIV and related viruses” (priority 1991, dated 1993).
Values joined by “and” are separate entries in the source; they are usually repeats but may differ in a detail not shown here. Equal entries are not always repeated.

How the values were obtained:
[1] = tested on: HIV virus; assay: Test A (XTT), MT4 cells infected with HIV; assay type: cell-based; details: for % inhibition: Test A
Method: (§1) Tests A, B, C, and D (XTT)
(§2) MT4 cells in a medium of RPMI 1640, 5% FCS, penicillin/streptomycin are adjusted to 2x10^5 cells/ml and seeded into microplates (96 wells/plate) 100 µl cell suspension/well giving 2x10^4 cells/well. The compound to be tested is made into a 10 mg/ml mixture in DMSO and stored at -20°C. The compound in DMSO is diluted with medium containing 10% DMSO in a 10-fold dilution series to give 1 mg/ml, 10 mg/ml, and […] solutions. Further dilutions to 400, 40, 4 and 0.4 mg/ml are made in medium containing microplates. Fifty µl of the 400, 40, and 4 mg/ml are transferred to the cell-containing microplates with a multi-channel pipette (final concentration: 100, 10, and 1 mg/ml). Finally, 50 µl of virus suspension is added to each well (with a repetitive "Eppendorf" multipipett). Each plate has at least six wells with the following: [Test A: HIV virus; Test B: HIV(II) virus; Test C: SIV virus; Test D: No virus]; with no drug (virus control) and six wells without virus (medium control). The plate is put into a plastic bag and incubated for six days in CO2 atmosphere. To each well in the plate is added 50 µl of XTT ((2,3-bis[2-methoxy-4-nitro-5-sulfophenyl]-5-[(phenylamino)carbonyl]-2H-tetrazolium hydroxide), (1 mg/ml 0.01-0.02 mM N-metyl-phenazonium methosulfate). After six hours of incubation in CO2 atmosphere the plates are covered with adhesive plate sealers and gently mixed on a vortex. Optical densities are determined at a wavelength of 450 nm and a reference wavelength of 650 nm. The percent reduction of cytotoxocity caused by the virus infection is calculated as follows: (OD450 compound - OD450 inf cells)/(OD450 uninf cells - OD450 inf cells)x 100 [formula]

[2] = tested on: HIV(II) virus; assay: Test B (XTT), MT4 cells infected with HIV(II); assay type: cell-based
Method: as §1, §2

[3] = tested on: SIV virus; assay: Test C (XTT), MT4 cells infected with SIV; assay type: cell-based; details: for % inhibition: Test C
Method: as §1, §2

[4] = tested on: MT4 cells; assay: Test D (XTT), MT4 cells, no virus; assay type: cell-based; details: Homo sapiens
Method: as §1, §2

[5] = tested on: HIV-1; assay: Test E (HIV-1 RT), RT activity in supernatant of infected MT-4/H9 cells; assay type: cell-based
Method: (§3) Tests E, F, G, H (HIV-IRT, HIV-2RT, SIVRT, no virus)
(§4) MT-4/H9-cells are adjusted to 2x10^5 cells/ml medium (RPMI 1640, 5% FCS, penicillin/streptomycin) and seeded into microplates (96 wells/plate) […] cell suspension/well giving 2 x 10^4 cells/well. The compound to be tested is made 10 mg/ml in DMSO = stock solution (stored at -20°C). The compound dissolved in DMSO is diluted 25 times in medium to give 400 mg/ml. Further dilutions to 40 mg/ml and 4 mg/ml are made in microplates.
(§5) 50 µl of the dilutions 400 mg/ml, 40 mg/ml and 4mg/ml are transferred to the "cell-containing" microplate with a multichannel pipette. […]
(§6) Finally 50 µl of virus suspension is added to each well (with a repetitive "Eppendorf multipett"). [Test E-HIV-1; Test F-HIV-2; Test G-SIV; Test H-no virus].
(§7) Each plate has at least four wells with virus but no drug (virus control) and two wells without virus (medium control). The plate is put into a plastic bag to avoid evaporation and incubated for six days in CO2-atmosphere. 10 µl supernatant from each well is transferred with a multichannel pipette into a new microplate to which 40 ml VDB, (50 mM Tris-HCl pH = 7.6, 35 mM KCl, 4 mM DTT, 1 mM EDTA, 1.3% Triton X-100), have been added to each well. The addition of 50 ml RT-reaction mix, (10 ml culture supernatant, 40 ml VDB and 50 ml reaction mixture giving a final concentration of: 100 mM Tris-HCl pH = 7.6, 100 mM KCl, 4 mM MgCl2, 4 mM DTT, 275 mg/ml BSA/ml, 5 mg (rA)n(dT)12-18/ml and 0.3 mM ^3H dTTP (specific activity 18.000 cpm/pmol)) gives a final volume of […]/well. After 60 minutes of incubation the whole assay volume is transferred by use of a cell harvester to a filter mat prewetted with 5% TCA. The filter is washed in 5% TCA and rinsed once in ethanol. After drying the filter mat at 60°C for 30 min. each filter (96/mat) is punched out and put into counting vials 2 ml of scintillation fluid is added and the samples are counted (1 min) or the whole filter mat is put into a plastic bag, 10 ml of scintillation fluid is added and the filter mat is counted in a Beckman Betaplate counter. Percent reduction of RT activity is determined by comparing RT activity for virus control with the RT activity measured for each dilution of the compound.

[6] = tested on: HIV-2; assay: Test F (HIV-2 RT), RT activity in supernatant of infected MT-4/H9 cells; assay type: cell-based; details: for inhibition at 0.1 µg/mL / inhibition at 1 µg/mL / inhibition at 10 µg/mL / inhibition at 100 µg/mL: Human immunodeficiency virus 2, H9, Test F; for % inhibition: Test F
Method: as §3, §4, §5, §6, §7

[7] = biological target: recombinant HIV-RT (Human immunodeficiency virus type 1 group M subtype B, UniProt P04585); assay: Test I (HIVRT (rAdt)), direct inhibition of recombinant HIV-RT; assay type: biochemical
Method: The compounds were tested for direct inhibitory activity on HIV-RT in a volume of […] recombinant HIV-RT (diluted in virus disruption buffer to give 200.000 cpm).
100 mM Tris-HCl pH 7.6, 100 mM KCl, 4 mM MgCl2, 4 mM DTT, 275 mg/ml BSA, 0.5 mg (rA)n(dT)12-18 and 0.3 mM ^3H- dTTP (specific activity […]). After 60 minutess of incubation 40 ml in duplicate were spotted on paper discs and washed in 5% TCA. After rinsing the paper discs in ethanol they were dried and counted in scintillation fluid.

[8] = Human immunodeficiency virus 1, MT4, Test A, 10 µg/ml
[9] = Simian immunodeficiency virus, MT4, Test C, 1 µg/ml
[10] = Simian immunodeficiency virus, MT4, Test C
[11] = Human immunodeficiency virus 1, H9, Test E
[12] = Human immunodeficiency virus 1, MT4, Test A, 100 µg/ml

FC(F)(F)c1csc(NC(=S)NCCc2ccccc2)n1
inhibition at 10 µg/mL [1, 8]: 24%
% inhibition ([1]; 0.1 µg/ml): 62% and 84%
% inhibition ([1]; 1 µg/ml): 100% and 75% and 84%
% inhibition ([1]; 10 µg/ml): 16% and 31%
inhibition at 0.1 µg/mL ([2]; Human immunodeficiency virus 1, MT4, Test B, 0.1 µg/ml): 21%
inhibition at 1 µg/mL ([2]; Human immunodeficiency virus 1, MT4, Test B, 1 µg/ml): 100%
inhibition at 10 µg/mL ([2]; Human immunodeficiency virus 1, MT4, Test B, 10 µg/ml): 38%
inhibition at 100 µg/mL ([2]; Human immunodeficiency virus 1, MT4, Test B, 100 µg/ml): 19%
inhibition at 0.1 µg/mL ([3]; Simian immunodeficiency virus, MT4, Test C, 0.1 µg/ml): 9%
inhibition at 1 µg/mL [3, 9]: 11%
inhibition at 10 µg/mL [3, 10]: 5%
inhibition at 100 µg/mL [3, 10]: 43%
inhibition at 0.1 µg/mL [4]: 0%
inhibition at 1 µg/mL [4]: 46%
inhibition at 10 µg/mL [4]: 75%
inhibition at 100 µg/mL [4]: 68%
inhibition at 0.1 µg/mL ([5]; Human immunodeficiency virus 1, H9, Test E, 0.1 µg/ml): 98%
inhibition at 1 µg/mL [5, 11]: 97%
inhibition at 10 µg/mL [5, 11]: 96%
inhibition at 100 µg/mL [5, 11]: 97%
inhibition at 0.1 µg/mL [6]: 56%
inhibition at 1 µg/mL ([6]; 1 µg/ml): 95%
inhibition at 10 µg/mL ([6]; 10 µg/ml): 98%
inhibition at 100 µg/mL ([6]; 100 µg/ml): 96%
% inhibition ([7]; 0.1 µg/ml): 68%
inhibition at 0.1 µg/mL ([7]; 0.1 µg/ml): 63%
% inhibition ([7]; 1 µg/ml): 75%
inhibition at 1 µg/mL ([7]; 1 µg/ml): 73%
% inhibition ([7]; 10 µg/ml): 75%
inhibition at 10 µg/mL ([7]; 10 µg/ml): 73%

S=C(NCCc1ccccc1)Nc1nnc[nH]1
inhibition at 1 µg/mL ([1]; Human immunodeficiency virus 1, MT4, Test A, 1 µg/ml): 11%
inhibition at 10 µg/mL [1, 8]: 27%
inhibition at 100 µg/mL [1, 12]: 45%
inhibition at 1 µg/mL [3, 9]: 5%
inhibition at 10 µg/mL [3, 10]: 8%
inhibition at 100 µg/mL [3, 10]: 15%
inhibition at 0.1 µg/mL [4]: 15%
inhibition at 1 µg/mL [4]: 33%
inhibition at 10 µg/mL [4]: 33%
inhibition at 100 µg/mL [4]: 0%
inhibition at 0.1 µg/mL ([7]; 0.1 µg/ml): 12%
inhibition at 1 µg/mL ([7]; 1 µg/ml): 14%
inhibition at 10 µg/mL ([7]; 10 µg/ml): 14%

S=C(NCCc1ccccc1)Nc1nccs1 [the 1st table, row 1]
inhibition at 100 µg/mL [1, 12]: 48%
% inhibition ([1]; 0.1 µg/ml): 4%
% inhibition ([1]; 10 µg/ml): 99% and 100% and 70% and 98%
% inhibition ([1]; 100 µg/ml): 58% and 64%
% inhibition ([2]; Test B, 1 µg/ml): 0%
% inhibition ([3]; 0.1 µg/ml): 0% and 1%
% inhibition ([3]; 1 µg/ml): 0% and 8% and 2%
inhibition at 0.1 µg/mL [4]: 31%
inhibition at 1 µg/mL [4]: 18%
inhibition at 10 µg/mL [4]: 33%
inhibition at 100 µg/mL [4]: 45%
inhibition at 1 µg/mL [5, 11]: 99%
inhibition at 10 µg/mL [5, 11]: 99%
inhibition at 100 µg/mL [5, 11]: 99%
% inhibition ([5]; Test E, 0.1 µg/ml): 10% and 1%
inhibition at 0.1 µg/mL [6]: 43%
inhibition at 1 µg/mL ([6]; 1 µg/ml): 75%
inhibition at 10 µg/mL ([6]; 10 µg/ml): 57%
inhibition at 100 µg/mL ([6]; 100 µg/ml): 95%
% inhibition ([6]; 1 µg/ml): 79%
% inhibition ([6]; 10 µg/ml): 76%
% inhibition ([6]; 100 µg/ml): 86%
